ChEMBL document CHEMBL3393049, “Syntheses and Antituberculosis Activity of 1,3-Benzothiazinone Sulfoxide and Sulfone Derived from BTZ043” (ACS Med Chem Lett, 2015)
≈ marks a conversion by molar mass, not a printed value.

These molecules were tested on Mycobacterium tuberculosis variant bovis BCG (assay: Antimycobacterial activity against Mycobacterium bovis BCG ATCC 35734 assessed as reduction in bacterial growth incubated for 6 days by MABA method). Details: ATCC 35734, 144 h.
Type: functional

| SMILES | MIC [µM] |
| --- | --- |
| C[C@H]1COC2(CCN(c3nc(=O)c4cc(C(F)(F)F)cc([N+](=O)[O-])c4[s+]3[O-])CC2)O1 (stereo not given in full) | 0.21 (≈ 0.094 µg/mL) |
| C[C@H]1COC2(CCN(C3=NC(=O)c4cc(C(F)(F)F)cc([N+](=O)[O-])c4S3(=O)=O)CC2)O1 | > 1 |
| C[C@H]1COC2(CCN(c3nc(=O)c4cc(C(F)(F)F)cc([N+](=O)[O-])c4s3)CC2)O1 [BTZ-043] | < 0.02 |
| NNC(=O)c1ccncc1 [ISONIAZID] | 0.5 (≈ 0.0686 µg/mL) |
| CO[C@H]1/C=C/O[C@@]2(C)Oc3c(C)c(O)c4c(O)c(c(/C=N/N5CCN(C)CC5)c(O)c4c3C2=O)NC(=O)/C(C)=C\C=C\[C@H](C)[C@H](O)[C@@H](C)[C@@H](O)[C@@H](C)[C@H](OC(C)=O)[C@@H]1C [RIFAMPIN] | 0.02 (≈ 0.0165 µg/mL) |
